What was measured:
[1] = test system: Parkinson's disease patients; assay: Pooled BIPARK-I and BIPARK-II: treatment-emergent adverse events in the safety set; assay type: in vivo, human
Text: The term “treatment-emergent adverse events” is defined as any event not present before exposure to the study drug or any event already present that worsens in either intensity or frequency after first intake of study drug until 2 weeks after last intake of the study drug.
(§1) The results of the two multi-centered double-blinded (DB) randomized placebo-controlled trials BIPARK-I (Ferreira et al., Lancet Neurol., 2016, 15, 154-65) and BIPARK-II (Lees et al., JAMA Neurol., 2017, 74, 197-206) were pooled together. Both clinical trials were performed to evaluate the efficacy and safety of opicapone in addition to levodopa-treated patients with moderate end-of-dose motor fluctuations. All patients had signs of end-of-dose deterioration for at least 4 weeks before screening, with a mean total awake off-time (state of akinesia or decreased mobility) of at least 1.5 hours, excluding morning akinesia. Eligible patients were randomized at baseline to the double-blind phase using a computer-generated scheme (administered by Cenduit, LLC) in a ratio of 1:1:1 to the addition of oral capsular opicapone, 25 mg/day or 50 mg/day, or matching placebo. The double-blind phase assessments occurred at 4-week intervals and the total duration of the double-blind phase could be 14 to 15 weeks. Full details of the inclusion and exclusion criteria and on study design are described in Ferreira et al., Lancet Neurol., 2016, 15, 154-65 and Lees et al., JAMA Neurol., 2017, 74, 197-206, which are incorporated herein by reference. Reductions in the daily dose (but not frequency) of levodopa were allowed between baseline and 3 to 4 weeks after baseline according to the clinical response but were not permitted thereafter.
(§2) Opicapone was synthesised as described in WO 2013/089573 and formulated into 25 or 50 mg capsules as described in WO 2010/114405. Study treatment (opicapone or matching placebo) was taken orally once daily in the evening at least 1 hour after the last daily dose of levodopa/DDCI (considered the bedtime dose).

[2] = test system: Parkinson's disease patients; assay: Pooled BIPARK-I and BIPARK-II post-hoc analysis: change from baseline in absolute off-time; assay type: in vivo, human; conditions: after 14-15 weeks
Text: The term “absolute off-time” is the combined total daily of 30-minute periods spent in an “off” state. Conversely, the term “absolute on-time” is the combined total daily of 30-minute periods spent in an “on” state. Periods where the patient is asleep are excluded from either group.
The term “unpredictable motor fluctuations”, also known as “unpredictable on/off fluctuations” or “on/off phenomenon”, relates to the unpredictable re-emergence or worsening of symptoms at any time, such as severe troublesome dyskinesias, severe/unpredictable end-of-dose motor fluctuations, painful “off” dystonia and morning akinesia (Fabbri M. et al., Mov. Disord., 2018, 33, 1528-1539). Unpredictable motor fluctuations are unrelated to the timing of the next dose and may occur at any time during the day. […] Within the clinical trials analysed, unpredictable on/off fluctuations were defined as present if clinicians scored “NO” at the UPDRS item 36 (“Are “off” periods predictable?”), or “YES” in at least one of the following UPDRS items: 37 (“Are “off” periods unpredictable?”) and 38 (“Do “off” periods come on suddenly, within a few seconds?”).
as §1
(§3) Populations undergoing analysis included all randomized patients who took at least 1 dose of study medication and had at least 1 post-baseline off-time assessment. The post-hoc analysis described herein, analyzed Parkinson's disease patients with (“YES”) and without (“NO”) unpredictable on/off fluctuations.
(§4) The primary efficacy variable was the change from baseline in absolute off-time. As secondary end-point, the inventors analyzed the absolute on-time as well as the proportions of patients achieving at least a 1-hour reduction in absolute off-time and/or the proportions of patients achieving at least a 1-hour increase in absolute on-time at the end of the double-blind phase, defined as “responders”.
(§5) Changes from baseline were analysed using ANCOVA with treatment group included as fixed effect factor and the baseline scale score as a covariate. CMH-Test was used to assess differences between OPC dose levels and Placebo taking study into account as a factor.
as §2

[3] = test system: Parkinson's disease patients; assay: Pooled BIPARK-I and BIPARK-II: OFF-time and ON-time responder rates (≥1 hour) at endpoint; assay type: in vivo, human
Text: The term “responders” is defined as patients achieving at least a 1-hour reduction in absolute off-time and/or the proportions of patients achieving at least a 1-hour increase in absolute on-time at the end of the double-blind phase of the trial.
as §1, §3, §4, §5, §2

[4] = test system: Parkinson's disease patients; conditions: BIPARK-I; patients with end-of-dose motor fluctuations; cited from earlier work
[5] = 25 mg, NO: without unpredictable motor fluctuations, N = 143
[6] = 25 mg, YES: unpredictable motor fluctuations, N = 98
[7] = 50 mg, NO: without unpredictable motor fluctuations, N = 175
[8] = 50 mg, YES: unpredictable motor fluctuations, N = 87
[9] = 25 mg, NO: without unpredictable motor fluctuations
[10] = 25 mg, YES: with unpredictable motor fluctuations
[11] = 50 mg, NO: without unpredictable motor fluctuations
[12] = 50 mg, YES: with unpredictable motor fluctuations

Cc1c(Cl)c(C)[n+]([O-])c(Cl)c1-c1noc(-c2cc(O)c(O)c([N+](=O)[O-])c2)n1 [opicapone, 2,5-dichloro-3-[5-(3,4-dihydroxy-5-nitrophenyl)-1,2,4-oxadiazol-3-yl]-4,6-dimethylpyridine 1-oxide]
Incidence of Related Serious TEAEs [1, 5]: 0 number (%) | Incidence of Serious TEAEs [1, 5]: 2 (0.8) number (%) | Incidence of any TEAEs leading to Discontinuation [1, 5]: 7 (2.9) number (%) | TEAE: Anxiety [1, 5]: 0 number (%) | TEAE: Back pain [1, 5]: 4 (2.7) number (%) | TEAE: Constipation [1, 5]: 9 (6.2) number (%) | TEAE: Dizziness [1, 5]: 7 (4.8) number (%) | TEAE: Dry mouth [1, 5]: 8 (5.5) number (%) | TEAE: Dyskinesias [1, 5]: 14 (9.6) number (%) | TEAE: Falls [1, 5]: 3 (2.1) number (%) | TEAE: Headache [1, 5]: 6 (4.1) number (%) | TEAE: Hypertension [1, 5]: 6 (4.1) number (%) | TEAE: Insomnia [1, 5]: 11 (7.5) number (%) | TEAE: Nausea [1, 5]: 5 (3.4) number (%) | TEAE: Parkinson's disease [1, 5]: 4 (2.7) number (%) | TEAE: Somnolence [1, 5]: 3 (2.1) number (%) | TEAE: Urinary tract infection [1, 5]: 1 (0.7) number (%) | TEAE: ↑CPK (Blood creatine phosphokinase) [1, 5]: 4 (2.7) number (%) | Incidence of Serious TEAEs [1, 6]: 3 (1.2) number (%) | Incidence of any TEAEs leading to Discontinuation [1, 6]: 6 (2.5) number (%) | TEAE: Anxiety [1, 6]: 5 (5.1) number (%) | TEAE: Back pain [1, 6]: 1 (1.0) number (%) | TEAE: Constipation [1, 6]: 3 (3.1) number (%) | TEAE: Dizziness [1, 6]: 3 (3.1) number (%) | TEAE: Dry mouth [1, 6]: 8 (8.2) number (%) | TEAE: Dyskinesias [1, 6]: 25 (25.5) number (%) | TEAE: Falls [1, 6]: 8 (8.2) number (%) | TEAE: Headache [1, 6]: 2 (2.0) number (%) | TEAE: Hypertension [1, 6]: 4 ( 4.1) number (%) | TEAE: Insomnia [1, 6]: 6 (6.1) number (%) | TEAE: Nausea [1, 6]: 6 (6.1) number (%) | TEAE: Parkinson's disease [1, 6]: 7 (7.1) number (%) | TEAE: Somnolence [1, 6]: 7 (7.1) number (%) | TEAE: Urinary tract infection [1, 6]: 3 (3.1) number (%) | TEAE: Weight decrease [1, 6]: 0 number (%) | TEAE: ↑CPK (Blood creatine phosphokinase) [1, 6]: 3 (3.1) number (%) | Incidence of Serious TEAEs [1, 7]: 6 (2.3) number (%) | Incidence of any TEAEs leading to Discontinuation [1, 7]: 13 (4.9) number (%) | TEAE: Back pain [1, 7]: 1 (0.6) number (%) | TEAE: Constipation [1, 7]: 10 (5.6) number (%) | TEAE: Dizziness [1, 7]: 5 (2.8) number (%) | TEAE: Dry mouth [1, 7]: 5 (2.8) number (%) | TEAE: Dyskinesias [1, 7]: 35 (19.7) number (%) | TEAE: Falls [1, 7]: 3 (1.7) number (%) | TEAE: Headache [1, 7]: 7 (3.9) number (%) | TEAE: Hypertension [1, 7]: 7 (3.9) number (%) | TEAE: Insomnia [1, 7]: 6 (3.4) number (%) | TEAE: Nausea [1, 7]: 6 (3.4) number (%) | TEAE: Parkinson's disease [1, 7]: 5 (2.8) number (%) | TEAE: Somnolence [1, 7]: 3 (1.7) number (%) | TEAE: Urinary tract infection [1, 7]: 9 (5.1) number (%) | TEAE: Weight decrease [1, 7]: 9 (5.1) number (%) | TEAE: ↑CPK (Blood creatine phosphokinase) [1, 7]: 12 (6.7) number (%) | Incidence of Related Serious TEAEs [1, 8]: 1 (0.4) number (%) | Incidence of Serious TEAEs [1, 8]: 7 (2.6) number (%) | Incidence of any TEAEs leading to Discontinuation [1, 8]: 10 (3.8) number (%) | TEAE: Anxiety [1, 8]: 3 (3.4) number (%) | TEAE: Back pain [1, 8]: 2 (2.3) number (%) | TEAE: Constipation [1, 8]: 7 (8.0) number (%) | TEAE: Dizziness [1, 8]: 4 (4.6) number (%) | TEAE: Dry mouth [1, 8]: 3 (3.4) number (%) | TEAE: Dyskinesias [1, 8]: 19 (21.8) number (%) | TEAE: Falls [1, 8]: 5 (5.7) number (%) | TEAE: Headache [1, 8]: 3 (3.4) number (%) | TEAE: Hypertension [1, 8]: 1 (1.1) number (%) | TEAE: Insomnia [1, 8]: 3 (3.4) number (%) | TEAE: Nausea [1, 8]: 2 (2.3) number (%) | TEAE: Parkinson's disease [1, 8]: 1 (1.1) number (%) | TEAE: Somnolence [1, 8]: 2 (2.3) number (%) | TEAE: Urinary tract infection [1, 8]: 1 (1.1) number (%) | TEAE: Weight decrease [1, 8]: 1.1 (0.4) number (%) | TEAE: ↑CPK (Blood creatine phosphokinase) [1, 8]: 1 (1.1) number (%) | Safety in patients with unpredictable motor fluctuations ([1]; patients with unpredictable motor fluctuations): safe | Absolute off-time, change from baseline vs. placebo ([2]; 25 mg vs. placebo, NO: patients without unpredictable motor fluctuations): -20.4 min | Absolute off-time, change from baseline vs. placebo ([2]; 25 mg vs. placebo, Total patients): -40.7 min | Absolute off-time, change from baseline vs. placebo ([2]; 25 mg vs. placebo, YES: patients with unpredictable motor fluctuations): -61 min | Absolute off-time, change from baseline to end-point ([2]; 25 mg, NO: patients without unpredictable motor fluctuations): -73.6 min | Absolute off-time, change from baseline to end-point ([2]; 25 mg, Total patients): -98.7 min | Absolute off-time, change from baseline to end-point ([2]; 25 mg, YES: patients with unpredictable motor fluctuations): -123.8 min | Absolute off-time, change from baseline vs. placebo ([2]; 50 mg vs. placebo, Total patients): -64 min | Absolute off-time, change from baseline to end-point ([2]; 50 mg, NO: patients without unpredictable motor fluctuations): -104.7 min | Absolute off-time, change from baseline to end-point ([2]; 50 mg, Total patients): -122 min | Absolute off-time, change from baseline to end-point ([2]; 50 mg, YES: patients with unpredictable motor fluctuations): -139.3 min | responders, off-time reduced (≥1 hour) [3, 9]: 58.7% | responders, on-time increased (≥1 hour) [3, 9]: 53.8% | responders, off-time reduced (≥1 hour) [3, 10]: 65.3% | responders, on-time increased (≥1 hour) [3, 10]: 69.4% | responders, off-time reduced (≥1 hour) [3, 11]: 68.6% | responders, on-time increased (≥1 hour) [3, 11]: 61.7% | responders, off-time reduced (≥1 hour) [3, 12]: 65.5% | responders, on-time increased (≥1 hour) [3, 12]: 66.7% | ability to reduce the time patients spent in the off state, vs. entacapone [4]: non-inferior | ability to reduce the time patients spent in the off state, vs. placebo combined with levodopa/DCCI [4]: superior

Source: patent US20230398105A1, “TREATMENT REGIMENS FOR PARKINSON'S DISEASE” (BIAL - PORTELA & Cª, S.A., priority 2020, published 2023)
